Laboratory results from patent publication US8889705B2, “Noscapine analogs and their use in treating cancers” (Emory University, priority 2007, dated 2014).

What was measured:
[1] = target: T1, tubulin; experiment: Tubulin binding assay (fluorescence titration, quenching of intrinsic tubulin fluorescence); parameters: species or system mammalian; conditions: 2 μM tubulin, 45 min at 37° C., double reciprocal plot; read-out: dissociation constant (Kd) for binding to tubulin
T1 construct: other: 2 μM tubulin, 45 min at 37° C., double reciprocal plot; rate and extent of tubulin polymerization; other: 25 μM or 100 μM
Method: Fluorescence titration for determining the tubulin binding parameters was performed as described previously (Gupta and Panda, 2002). In brief, 9-nitro-nos (0-100 μM) was incubated with 2 μM tubulin in 25 mM PIPES, pH 6.8, 3 mM MgSO4 and 1 mM EGTA for 45 min at 37° C. The relative intrinsic fluorescence intensity of tubulin was then monitored in a JASCO FP-6500 spectrofluorometer (JASCO, Tokyo, Japan) using a cuvette of 0.3-cm path length, and the excitation wavelength was 295 nm. The fluorescence emission intensity of 9-nitro-nos at this excitation wavelength was negligible. A 0.3-cm path-length cuvette was used to minimize the inner filter effects caused by the absorbance of 9-nitro-nos at higher concentration ranges. In addition, the inner filter effects were corrected using a formula Fcorrected=Fobserved·antilog [(Aex+Aem)/2], where Aex is the absorbance at the excitation wavelength and Aem is the absorbance at the emission wavelength. The dissociation constant (Kd) was determined by the formula: 1/B=Kd/[free ligand]+1, where B is the fractional occupancy and [free ligand] is the concentration of free noscapine or 9-nitro-nos. The fractional occupancy (B) was determined by the formula B=ΔF/ΔFmax, where ΔF is the change in fluorescence intensity when tubulin and its ligand are in equilibrium and ΔFmax is the value of maximum fluorescence change when tubulin is completely bound with its ligand. ΔFmax was calculated by plotting 1/ΔF versus 1/ligand using total ligand concentration as the first estimate of free ligand concentration.
Fluorescence titration for determining the tubulin binding parameters was performed as described previously. In brief, 9-F-nos, 9-Cl-nos, 9-Br-nos or 9-I-nos (0-100 μM) was incubated with 2 μM tubulin in 25 mM PIPES, pH 6.8, 3 mM MgSO4, and 1 mM EGTA for 45 min at 37° C. The relative intrinsic fluorescence intensity of tubulin was then monitored in a JASCO FP-6500 spectrofluorometer (JASCO, Tokyo, Japan) using a cuvette of 0.3-cm path length, and the excitation wavelength was 295 nm. The fluorescence emission intensity of noscapine and its derivatives at this excitation wavelength was negligible. A 0.3-cm path-length cuvette was used to minimize the inner filter effects caused by the absorbance of these agents at higher concentration ranges. In addition, the inner filter effects were corrected using a formula F corrected=F observe·antilog [(Aex+Aem)/2], where Aex is the absorbance at the excitation wavelength and Aem is the absorbance at the emission wavelength. The dissociation constant (Kd) was determined by the formula: 1/B=Kd/[free ligand]+1, where B is the fractional occupancy and [free ligand] is the concentration of 9-F-nos, 9-Cl-nos, 9-Br-nos or 9-I-nos. The fractional occupancy (B) was determined by the formula B=ΔF/ΔFmax, where ΔF is the change in fluorescence intensity when tubulin and its ligand are in equilibrium and ΔFmax is the value of maximum fluorescence change when tubulin is completely bound with its ligand. ΔFmax was calculated by plotting 1/ΔF versus 1/[free ligand].

[2] = test system: CEM/VLB100 cells; experiment: In vitro cell proliferation MTS assay; type: cell-based; conditions: Homo sapiens, CEM/VLB100, 72 hours
Method: (§1) Suspension cells (CEM, CEMNLB100 and CEM/VM-1-5) were cultured in RPMI-1640 media containing 10% FBS and then seeded into 96-well plates at a density of 5×10^3 cells per well and were treated with increasing gradient concentrations of 9-nitro-nos for 72 hours. Measurement of cell proliferation was performed colorimetrically by 3-(4,5-dimethylthiazol-2-yl)-5-(3-carboxymethoxyphenyl)-2-(4-sulphophenyl)-2H-tetrazolium, inner salt (MTS) assay, using the CellTiter96 AQueous One Solution Reagent (Promega, Madison, Wis.). Cells were exposed to MTS for 3 hours and absorbance was measured using a microplate reader (Molecular Devices, Sunnyvale, Calif.) at an optical density (OD) of 490 nm. The percentage of cell survival as a function of drug concentration for both the assays was then plotted to determine the IC50 value, which stands for the drug concentration needed to prevent cell proliferation by 50%.

[3] = test system: CEM/VM-1-5 cells; experiment: In vitro cell proliferation MTS assay; type: cell-based; conditions: Homo sapiens, CEM/VM-1-5, 72 hours
Method: as §1

[4] = test system: CEM, CEM/VLB100, CEM/VM-1-5, 1A9 and 1A9/PTX22 cells; experiment: Immunofluorescence microscopy (microtubule and nuclear morphology); type: cell-based, human; conditions: 72 hours
Method: Cells adhered to poly-L-lysine coated coverslips were treated with 9-nitro-nos for 72 hours. After treatment, cells were fixed with cold (−20° C.) methanol for 5 min and then washed with phosphate-buffered saline (PBS) for 5 min. Non-specific sites were blocked by incubating with 100 μl of 2% BSA in PBS at 37° C. for 15 min. A mouse monoclonal antibody against α-tubulin (DM1A, Sigma) was diluted 1:500 in 2% BSA/PBS (100 μl) and incubated with the coverslips for 2 hours at 37° C. Cells were then washed with 2% BSA/PBS for 10 min at room temperature before incubating with a 1:200 dilution of a fluorescein-isothiocyanate (FITC)-labeled goat anti-mouse IgG antibody (Jackson ImmunoResearch, Inc., West Grove, Pa.) at 37° C. for 1 hour. Coverslips were then rinsed with 2% BSA/PBS for 10 min and incubated with propidium iodide (0.5 μg/ml) for 15 min at room temperature before they were mounted with Aquamount (Lerner Laboratories, Pittsburgh, Pa.) containing 0.01% 1,4-diazobicyclo(2,2,2)octane (DABCO, Sigma). Cells were then examined using confocal microscopy for microtubule morphology, and nuclear morphology to visualize DNA fragmentation (at least 100 cells were examined per condition).

[5] = test system: 1A9/PTX22 cells; experiment: TUNEL assay for apoptosis (flow cytometry); type: cell-based, human; conditions: 1A9/PTX22, 50 μM, 72 hours
Method: DNA strand breaks were identified by using the TUNEL assay as described. In brief, 1A9/PTX22 cells were incubated with 50 μM 9-nitro-nos for 72 hours. Cells were pelleted and washed with ice-cold PBS twice. Cells were then fixed in 1% paraformaldehyde, and apoptosis was detected using the APO-BrdU TUNEL Assay Kit from Molecular Probes (Eugene, Oreg.) according to the manufacturer's instructions. This assay was run on a flow cytometer equipped with a 488 nm argon laser as the light source. Propidium iodide (total cellular DNA) and Alexa-Fluor 488 (apoptotic cells) were the two dyes used. PI fluoresces at about 623 nm and Alexa-Fluor 488 at about 520 nm when excited at 488 nm. […] The gating display was the standard dual parameter DNA doublet discrimination display with the DNA area signal on the Y-axis and the DNA width signal on the X-axis. From this display, a gate was generated around the non-clumped cells and the second gated dual parameter display was generated with the DNA (linear red fluorescence) on the X-axis and the Alexa-Fluor 488 (log green fluorescence) on the Y-axis. Apoptotic cells were subsequently counted as those expressing high Alexa-Fluor 488 fluorescence. Confocal micrographs were also obtained for the TUNEL-stained cells using a 63× objective.

Kd [1]: 86 ± 6 µM
Structure (SMILES): COc1ccc2c(c1OC)C(=O)O[C@@H]2[C@H]1c2c(c([N+](=O)[O-])c3c(c2OC)OCO3)CCN1C [9-nitro-nos, (S)-6,7-dimethoxy-3-((R)-4-methoxy-6-methyl-9-nitro-5,6,7,8-tetrahydro-[1,3]dioxolo[4,5-g]isoquinolin-5-yl)isobenzofuran-1(3H)-one]
IC50 [2]: 8.1 µM
IC50 [3]: 6.9 µM
cellular and nuclear morphology (apoptosis) [4]: extensive terminal apoptotic figures with fragmented DNA pieces and perturbed microtubule arrays
TUNEL-positive cells [5]: 55.9%
